Data taken from the NIST ThermoML archive (doi:10.1021/acs.jced.7b00297).

Experiments:
[1] = mn = molality of the nth substance listed, in mol/kg; conditions: 84.5 kPa, Liquid; for speed of sound: Single path-length method; for mass density: Vibrating tube method
[2] = 298.15 K; 101.33 kPa; Liquid; Vibrating tube method

CCCCn1cc[n+](C)c1.[Cl-] [1-butyl-3-methylimidazolium chloride] + O
[1]
Conditions | mass density, 288.15 K [kg/m3] | mass density, 298.15 K [kg/m3] | mass density, 308.15 K [kg/m3] | mass density, 318.15 K [kg/m3] | speed of sound, 288.15 K [m/s] | speed of sound, 298.15 K [m/s] | speed of sound, 308.15 K [m/s] | speed of sound, 318.15 K [m/s]
m1 = 0.0344 | 999.577 | 997.479 | 994.434 | 990.589 | 1472 | 1501.5 | 1523.9 | 1540.1
m1 = 0.0526 | 999.828 | 997.71 | 994.648 | 990.791 | 1474.7 | 1504 | 1526.1 | 1542
m1 = 0.0926 | 1000.37 | 998.209 | 995.113 | 991.228 | 1480.8 | 1509.3 | 1530.8 | 1546.1
m1 = 0.1181 | 1000.72 | 998.524 | 995.403 | 991.504 | 1485 | 1513.1 | 1534 | 1548.9
m1 = 0.1806 | 1001.56 | 999.3 | 996.124 | 992.177 | 1493.8 | 1520.7 | 1540.7 | 1554.8
m1 = 0.2371 | 1002.33 | 999.998 | 996.773 | 992.785 | 1502.2 | 1528 | 1547.1 | 1560.5
m1 = 0.479 | 1005.59 | 1002.98 | 999.537 | 995.37 | 1535.7 | 1557.1 | 1572.5 | 1582.7
m1 = 0.7374 | 1009.02 | 1006.11 | 1002.43 | 998.079 | 1568.8 | 1586 | 1597.6 | 1604.5

CCCCn1cc[n+](C)c1.O=S(=O)([O-])C(F)(F)F [1-butyl-3-methylimidazolium trifluoromethanesulfonate]
Conditions | mass density [kg/m3]
[2] | 1297.84

CCCCCCn1cc[n+](C)c1.[Cl-] [1-hexyl-3-methylimidazolium chloride]
Conditions | mass density [kg/m3]
[2] | 1042.86
